TGI data for three molecules are collected here from PubChem BioAssay (NCI).

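Method: 48-hour compound exposure of cells in 96-well plates, five concentrations, linear interpolation of endpoints. At the TGI there is no net growth.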

Test systems include BT-549 breast; DLD-1 colon; DMS 114 small cell lung; HOP-18 NSCLC; HOP-92 NSCLC; LXFL 529 NSCLC; NCI/ADR-RES ovarian; SNB-78 CNS; U251 CNS; HS 578T breast.
Experiment in all cases: NCI anticancer screen, dose series, 48 h

Consider `O=Cc1ccc(-c2ccc(-c3ccc(C=O)s3)o2)s1`, for which the TGI is above 100 µM with BT-549 breast; above 100 µM in the assay with DLD-1 colon; above 100 µM in the assay with DMS 114 small cell lung; above 100 µM in the assay on HOP-18 NSCLC; above 100 µM in the assay with HOP-92 NSCLC; 0.324 µM in the assay on LXFL 529 NSCLC. Also, the TGI was above 100 µM with NCI/ADR-RES ovarian, above 100 µM in the assay on SNB-78 CNS and above 50.8 µM in the assay with U251 CNS.

In the case of `CC(=O)OC1CCn2nnc(COC(=O)NC(C)C)c21` (stereo unspecified), the TGI in the assay with DLD-1 colon, in the assay on DMS 114 small cell lung, in the assay with HOP-18 NSCLC, in the assay on HOP-92 NSCLC, in the assay on LXFL 529 NSCLC and in the assay with SNB-78 CNS was above 100 µM throughout. The same molecule yielded a TGI with U251 CNS above 100 µM.

Take `O=C1C=C(Nc2ccccc2C(=O)CC(=O)C(=O)Nc2cccc(C(F)(F)F)c2)c2ccccc2C1=O`: the TGI with BT-549 breast was 49.1 µM; with DLD-1 colon, above 37.6 µM; in the assay on DMS 114 small cell lung it was 35.1 µM; in the assay with HOP-18 NSCLC, 40.6 µM; in the assay on HOP-92 NSCLC it was above 94.3 µM; with HS 578T breast, 66.2 µM. The TGI in the assay on LXFL 529 NSCLC is 71.5 µM; with NCI/ADR-RES ovarian, 49.5 µM; in the assay with SNB-78 CNS, above 100 µM; in the assay on U251 CNS it was 96.5 µM.
